Test: flash point
Type: physicochemical
Conditions: pure glycol component

In the case of `CC(O)CO` (stereo not shown) [1,2-Propandiol], the flash point is reported as > 102 °C.

From patent US20140034581A1, “LIQUID PRODUCTS AND METHOD FOR EMULSIFYING OIL, AND USE THEREOF IN THE TREATMENT OF OIL CONTAMINATIONS” (MAN OIL GROUP AG, priority 2011, published 2014)
